The record followed here is ChEMBL document CHEMBL2406999, “Vialinin A is a ubiquitin-specific peptidase inhibitor” (Bioorg Med Chem Lett, 2013).

Active and inactive are the calls of the source. No cut-off for these calls is given here.

The target in test [1] is Cathepsin B (Homo sapiens) (UniProt P07858). As to the kind of experiment: Inhibition of cathepsin B (unknown origin) at 6.3 uM after 20 mins by fluorometric analysis.
For test [2], the target named is T1, Ubiquitin carboxyl-terminal hydrolase 4 (Homo sapiens, UniProt Q13107).
T1 sequence (Q13107 whole entry): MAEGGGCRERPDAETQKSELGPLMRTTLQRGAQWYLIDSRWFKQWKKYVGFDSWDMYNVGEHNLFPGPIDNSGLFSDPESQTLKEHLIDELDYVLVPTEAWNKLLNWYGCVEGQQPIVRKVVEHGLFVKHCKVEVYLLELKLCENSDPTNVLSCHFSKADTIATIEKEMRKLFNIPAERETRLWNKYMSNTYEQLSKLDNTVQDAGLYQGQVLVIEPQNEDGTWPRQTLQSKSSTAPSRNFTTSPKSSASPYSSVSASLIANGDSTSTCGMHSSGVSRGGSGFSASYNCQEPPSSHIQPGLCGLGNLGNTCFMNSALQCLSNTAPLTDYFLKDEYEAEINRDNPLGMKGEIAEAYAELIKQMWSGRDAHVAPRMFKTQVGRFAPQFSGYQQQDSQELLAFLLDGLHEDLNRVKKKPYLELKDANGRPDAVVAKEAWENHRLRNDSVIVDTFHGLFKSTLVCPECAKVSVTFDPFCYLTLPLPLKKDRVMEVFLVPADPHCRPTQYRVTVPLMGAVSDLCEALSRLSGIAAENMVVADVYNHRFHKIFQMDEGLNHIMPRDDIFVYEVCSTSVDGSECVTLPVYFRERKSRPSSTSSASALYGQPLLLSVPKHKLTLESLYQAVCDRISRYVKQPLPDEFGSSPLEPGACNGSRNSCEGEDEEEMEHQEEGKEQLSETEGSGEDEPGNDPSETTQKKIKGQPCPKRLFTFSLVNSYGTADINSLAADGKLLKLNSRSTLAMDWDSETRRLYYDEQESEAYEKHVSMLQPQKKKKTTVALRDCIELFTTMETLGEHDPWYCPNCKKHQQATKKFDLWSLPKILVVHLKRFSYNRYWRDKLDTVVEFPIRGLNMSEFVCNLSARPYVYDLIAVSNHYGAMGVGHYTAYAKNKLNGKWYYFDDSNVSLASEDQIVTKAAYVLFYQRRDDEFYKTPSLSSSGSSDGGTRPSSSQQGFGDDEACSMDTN
The experiment in a line: Inhibition of human USP4 using Ub-AMC as substrate after 60 mins by fluorometric analysis.

Test [3] has as its system T2, Ubiquitin carboxyl-terminal hydrolase 5 (Homo sapiens), P45974 [H818A].
T2 sequence (whole entry): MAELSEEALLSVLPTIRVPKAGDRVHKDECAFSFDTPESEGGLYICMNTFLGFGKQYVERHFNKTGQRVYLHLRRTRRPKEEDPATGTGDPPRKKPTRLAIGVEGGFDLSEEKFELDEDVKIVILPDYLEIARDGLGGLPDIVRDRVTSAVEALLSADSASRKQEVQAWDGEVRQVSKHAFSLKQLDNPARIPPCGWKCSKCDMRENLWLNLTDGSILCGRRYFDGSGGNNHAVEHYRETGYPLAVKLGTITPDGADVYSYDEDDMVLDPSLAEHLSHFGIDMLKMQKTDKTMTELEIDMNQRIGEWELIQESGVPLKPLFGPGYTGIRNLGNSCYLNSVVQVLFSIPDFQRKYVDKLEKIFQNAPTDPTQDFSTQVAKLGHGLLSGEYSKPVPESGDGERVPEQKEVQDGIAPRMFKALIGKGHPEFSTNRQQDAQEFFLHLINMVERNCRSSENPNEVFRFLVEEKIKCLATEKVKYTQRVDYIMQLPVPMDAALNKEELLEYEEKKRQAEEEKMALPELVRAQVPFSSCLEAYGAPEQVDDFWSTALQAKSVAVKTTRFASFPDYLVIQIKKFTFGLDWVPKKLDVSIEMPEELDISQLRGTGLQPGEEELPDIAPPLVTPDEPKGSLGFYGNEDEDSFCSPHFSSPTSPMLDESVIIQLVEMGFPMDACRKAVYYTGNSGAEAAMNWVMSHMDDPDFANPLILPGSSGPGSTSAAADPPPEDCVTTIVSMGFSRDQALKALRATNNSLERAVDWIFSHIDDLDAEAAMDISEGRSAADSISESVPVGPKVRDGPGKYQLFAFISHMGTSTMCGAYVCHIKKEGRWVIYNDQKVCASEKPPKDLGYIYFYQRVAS
The experiment in a line: Competitive binding affinity to human USP5 H818A mutant by SDS-PAGE analysis in presence of biotin-DMT.

In test [4] the test system is RBL-2H3. As to the kind of experiment: Binding affinity to USP5 in rat RBL2H3 cell extracts at 10 to 40 uM by SDS-PAGE analysis.

In the case of `O=C(Cc1ccccc1)Oc1c(OC(=O)Cc2ccccc2)c(-c2ccc(O)cc2)c(O)c(O)c1-c1ccc(O)cc1` [VIALININ A], the inhibition entry in test [1] is “inactive”. Also, in test [2], the midpoint of inhibition, the IC50, lay at 1.5 µM. The result in test [3] and in test [4] was inactive.
